Measured values from patent publication US11536729B2, “Method of identifying novel protein aggregation inhibitors based on chemical kinetics” (Cambridge Enterprise Limited, priority 2016, dated 2022).
Read-outs that look alike come from different tables or passages of the source.

Key:
[1] = target: T1, Aβ42 (Homo sapiens, UniProt P05067); test: ThT-based Aβ42 aggregation kinetics under quiescent (unseeded) conditions; type: biochemical
T1 construct: The recombinant Aβ (M1-42) peptide; made in house; host or cells: E. coli BL21 Gold (DE3)
Experimental: Solutions of monomeric peptides were prepared by dissolving the lyophilized Aβ42 peptide in 6 M GuHCl. Monomeric forms were purified from potential oligomeric species and salt using a Superdex 75 10/300 GL column (GE Healthcare) at a flowrate of 0.5 mL/min, and were eluted in 20 mM sodium phosphate buffer, pH 8 supplemented with 200 μM EDTA and 0.02% NaN3. The center of the peak was collected and the peptide concentration was determined from the absorbance of the integrated peak area using ε280=1400 l mol^−1 cm^−1. The obtained monomer was diluted with buffer to the desired concentration and supplemented with 20 μM Thioflavin T (ThT) from a 1 mM stock. All samples were prepared in low binding eppendorf tubes on ice using careful pipetting to avoid introduction of air bubbles. Each sample was then pipetted into multiple wells of a 96-well half-area, low-binding, clear bottom and PEG coating plate (Corning 3881), 80 μL per well.
We verified that the addition of 1% DMSO in the reaction mixture has no effect on Aβ42 aggregation.
Assays were initiated by placing the 96-well plate at 37° C. under quiescent conditions in a plate reader (Fluostar Omega, Fluostar Optima or Fluostar Galaxy, BMGLabtech, Offenburg, Germany). The ThT fluorescence was measured through the bottom of the plate with a 440 nm excitation filter and a 480 nm emission filter. The ThT fluorescence was followed for three repeats of each sample.
The time evolution of the total fibril mass concentration, M(t), is described by the following integrated rate law (30, 32)
(§1) [formula] where the kinetic parameters B±, C±, κ, κ∞ and ? are functions of the two ? combinations of the microscopic rate constants k+k2 and knk2, where kn, k+ and k2 are the primary nucleation, elongation and secondary nucleation rate constants, respectively.
The time evolution of the total fibril mass concentration, M(t), is described by the following integrated rate law
as §1, with “two” for “two ?”, “respectively. Aβ42 alone in 1% DMSO was first modeled to obtain the k+k2 and knk2 combined microscopic rate constants.” for “respectively.”
With the introduction of different small molecules, the aggregation process can be inhibited by one or more individual microscopic reactions. Microscopic rate constants k+k2 and knk2 were obtained in the presence of the molecules, and compared to the initial values of Aβ42 alone. This comparison allows one to understand which rate was mainly perturbed, as well as the potency of the compounds (by relative changes of their microscopic rates) with respect to each other.

[2] = target: T2, Aβ42 fibrils (Homo sapiens, UniProt P05067); test: Dot blot assay with fibril-specific OC antibody (label-free fibril formation); type: biochemical; conditions: 2 μM Aβ42, 4-fold excess
T2 construct: The recombinant Aβ (M1-42) peptide; made in house; host or cells: E. coli BL21 Gold (DE3)
Experimental: Blotting was performed using either Aβ42 fibril-specific antibody (OC, Millipore) or Aβ42 sequence-specific antibody (W0-2, Millipore). […] Aβ42 aliquots were spotted onto a nitrocellulose membrane (0.2 μm, Whatman) and then the membranes were dried and then blocked with Blocking One (Nacalai tesque) before immuno-detection. OC and W0-2 were used according to the manufacturers instructions. Alexa Fluor® 488-conjugated secondary antibodies (Life technologies) were subsequently added and fluorescence detection was performed using Typhoon Trio Imager (GE Healthcare). […] For the calibration curve (FIG. 3d), a series of dilutions between 4 μM and 0.1 μM were performed on freshly prepared Aβ42 fibrils and 4 μL aliquots were deposited onto the same nitrocellulose membrane (0.2 μm, Whatman) as the one used for OC fibril-specific antibody. […] However, under these conditions we could not detect oligomers due to their very low concentration during Aβ42 aggregation even when depositing on the membrane volumes as high as 20 μL.

[3] = tested on: SH-SY5Y human neuroblastoma cells; type: cell-based; conditions: 0.5 μM Aβ42, 10 μM bexarotene
Experimental: Aβ42 oligomers are known to be toxic to cells leading to apoptosis and to cellular death. […] SH-SY5Y human neuroblastoma cells were cultured under standard conditions, at 37° C. in a humidified incubator with 5% CO2. Cells were seeded at a density of 25,000 per well in a white-walled, clear-bottomed 96-well plate and cultured for 24 h in MEM/F12(1:1)/10% Fetal Bovine Serum (FBS) (Gibco). The culture medium was then replaced with pre-warmed phenol red free DMEM without FBS into which the peptide samples or NaPO4 buffer were diluted 1:1. […] The aggregation reaction was set up as above except for the buffer from which NaN3 was removed due to its toxicity. […] All the specified time points correspond to Aβ42 in the lag phase in order to monitor inhibition at the early stage of the aggregation. […] The cells were cultured in the presence of the peptides, buffer and media for further 24 h before the cytotoxic effect was measured.
Cell medium diluted with the same buffer that was used in these experiments was included in some wells in order to evaluate the intrinsic fluorescence of the media and bexarotene.
For the positive control, staurosporine (1 μM) was added to the cells for 2 hours. Caspase-3/7 activity was measured using the Apo-ONE Homogeneous Caspase-3/7 assay (Promega). The fluorogenic caspase-3/7 substrate, rhodamine 110 bis-(N-CBZ-L-aspartyl-L-glutamyl-L-valyl-aspartic acid amide) was diluted 1:100 in the lysis buffer provided and added to the cell medium at a 1:1 ratio. The fluorescence was measured at excitation 480 nm/emission 520 nm in an Optima FluoStar plate reader. In each of the used plates, the toxicity was assessed according to a negative and a positive control.
For comparative purposes between different plates, we normalized the fluorescence values using a parabolic equation (y=ax^b), which corresponds to the evolution of the oligomers as a function of time. Negative and positive controls were set to 1 and 10, respectively. […] Statistical analyses were performed using GraphPad prism 6.0. Results are expressed as mean±SEM.

[4] = 2 μM Aβ42, 4-fold excess of compound

T1 sequence (P05067 671-713): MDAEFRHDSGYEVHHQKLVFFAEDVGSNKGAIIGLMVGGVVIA
T2 sequence (P05067 672-713 limits assumed): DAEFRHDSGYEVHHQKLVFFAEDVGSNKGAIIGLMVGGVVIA

SMILES: C=C(c1ccc(C(=O)O)cc1)c1cc2c(cc1C)C(C)(C)CCC2(C)C [bexarotene]
- increase of time to half-completion compared to Aβ42 alone [1, 4]: factor of two
- time to half-completion of the aggregation reaction [1, 4]: 4.50 ± 0.06 h
- time for which unseeded aggregation was completely inhibited ([1]; 2 μM Aβ42, 10-fold excess): 15 h
- effect on secondary pathways (k2k+) ([1]; 5 μM Aβ42, 5-25 μM bexarotene): no (or very little) detectable effect
- primary nucleation rate constant kn ([1]; 5 μM Aβ42, 5-25 μM bexarotene): specifically decreased
- effect on Aβ42 aggregation ([1]; increasing concentrations of bexarotene): progressive delay
- delay in the time required for half-completion of the aggregation process [2]: 2 h
- incubation time after which detectable toxic Aβ42 species are formed in presence of compound ([3]; 37° C.): 7 h
- toxicity (caspase-3) of Aβ42 species in absence of bexarotene, higher than in its presence ([3]; aliquot after 0.3 h incubation): 65±5%
- toxicity (caspase-3) of Aβ42 species in absence of bexarotene, higher than in its presence ([3]; aliquot after 4 h incubation): 65±5%
- level of toxicity generated in the presence of bexarotene ([3]; aliquot after 7 h incubation): increased to a value similar to that observed in its absence
